Consider 17 compounds from US20240317752A1, “6-SUBSTITUTED-9H-PURINE DERIVATIVES AND RELATED USES” (Black Diamond Therapeutics, Inc., priority 2021, published 2024).

The target of the assay is T1, BaF3 BRAF-KIAA1549 fusion cells (Homo sapiens, UniProt P15056).
T1 construct: The BRAF-KIAA1549 fusion mutant was subcloned into pMXs-IRES-Blasticidin (RTV-016, Cell Biolabs, San Diego, CA); fused on or other part: Q9HCM3 (UPF0606 protein KIAA1549)
The assay can be described thus: BaF3 BRAF-KIAA1549 fusion cell proliferation assay (CellTiterGlo). Format: cell-based. The settings on record: 96 hours incubation, potency code. As for the experimental part: Retroviral Production: The BRAF-KIAA1549 fusion mutant was subcloned into pMXs-IRES-Blasticidin (RTV-016, Cell Biolabs, San Diego, CA). Retrovirus was produced by transfection of HEK 293T cells with the retroviral BRAF mutant expression vector pMXs-IRES-Blasticidin (RTV-016, Cell Biolabs), pCMV-Gag-Pol vector and pCMV-VSV-G-Envelope vector. Briefly, HEK 293T cells were plated in Poly-D-lysine coated 6-well plate (2.5×10^5 cells per well) and incubated overnight. The next day, retroviral plasmids (1 μg of BRAF-KIAA fusion mutant, 0.32 μg of pCMV-Gag-Pol and 0.165 μg pCMV-VSV-G) were mixed in 300 μL of Optimem (31985, Life Technologies). The mixture was incubated at room temperature for 5 minutes and then added to Optimem containing transfection reagent Lipofectamine (11668, Invitrogen) and incubated for 20 minutes. The mixture was then added dropwise to HEK 293T cells. The next day the medium was replaced with fresh culture medium and retrovirus was harvested at 24 hours.
Generation of BRAF-KIAA1549 fusion stable cell line: BaF3 cells were plated in V-bottom 96 well plate (COSTAR #3894) in 80 μL of RPMI/10% FBS and 0.01 ng/ml mouse IL-3; supplemented with 8 μg/mL polybrene (4×10^4 cells/well). Cells were transduced with 20 μL of BRAF-KIAA1549 fusion viral supernatant by centrifuging for 30 minutes at 1000 rpm. Cells were placed in a 37° C. incubator overnight. Next day 100 μL of RPMI/10% FBS and 0.01 ng/ml mouse IL-3 was added. After 24 hours, 100 μL of cells were transferred to a 24 well plate containing 900 μL of RPMI/10% FBS and 15 μg/mL Blasticidin. Contents of the 24 well plate were sampled for cell viability via CellTiterGlo (Promega) over a 2-week period.
Assay for cell proliferation: BaF3 BRAF-KIAA1549 fusion cells were resuspended at 1.5×10^5c/mL in RPMI containing 10% Heat Inactivated FBS, 1% L-glutamine and dispensed in duplicate ([…]) into 384 well plates. To determine the effect of compound on cell proliferation, BaF3 BRAF-KIAA1549 fusion cells were incubated for 96 hours in the presence of vehicle control (DMSO) or compound at varying concentrations. Inhibition of cell growth was determined by luminescent quantification (Envision by Perkin Elmer) of intracellular ATP content using CellTiterGlo (Promega), according to the protocol provided by the manufacturer. To determine the IC50 values, the vehicle-treated cells were normalized as viable cells and analyzed using the CDD Vault, Collaborative Drug Discovery, Burlingame, CA (the Levenberg-Marquardt algorithm; Levenberg, K., […]; Marquardt, D., 1963).
Tables A1 and A2 assign each compound a code for potency in the BaF3 BRAF-KIAA1549 fusion cell proliferation assay: A, B, C, or D. According to the code, A represents an IC50 value <20 nM; B represents an IC50 value ≥20 nM and <100 nM; C represents an IC50 value ≥100 nM and <500 nM; and D represents an IC50 value ≥500 nM.
A general note: Cellular ATP, detected with luciferase, serves as a proxy for viable cell number.

T1 sequence (P15056 whole entry, change not shown, the tested form may be a part): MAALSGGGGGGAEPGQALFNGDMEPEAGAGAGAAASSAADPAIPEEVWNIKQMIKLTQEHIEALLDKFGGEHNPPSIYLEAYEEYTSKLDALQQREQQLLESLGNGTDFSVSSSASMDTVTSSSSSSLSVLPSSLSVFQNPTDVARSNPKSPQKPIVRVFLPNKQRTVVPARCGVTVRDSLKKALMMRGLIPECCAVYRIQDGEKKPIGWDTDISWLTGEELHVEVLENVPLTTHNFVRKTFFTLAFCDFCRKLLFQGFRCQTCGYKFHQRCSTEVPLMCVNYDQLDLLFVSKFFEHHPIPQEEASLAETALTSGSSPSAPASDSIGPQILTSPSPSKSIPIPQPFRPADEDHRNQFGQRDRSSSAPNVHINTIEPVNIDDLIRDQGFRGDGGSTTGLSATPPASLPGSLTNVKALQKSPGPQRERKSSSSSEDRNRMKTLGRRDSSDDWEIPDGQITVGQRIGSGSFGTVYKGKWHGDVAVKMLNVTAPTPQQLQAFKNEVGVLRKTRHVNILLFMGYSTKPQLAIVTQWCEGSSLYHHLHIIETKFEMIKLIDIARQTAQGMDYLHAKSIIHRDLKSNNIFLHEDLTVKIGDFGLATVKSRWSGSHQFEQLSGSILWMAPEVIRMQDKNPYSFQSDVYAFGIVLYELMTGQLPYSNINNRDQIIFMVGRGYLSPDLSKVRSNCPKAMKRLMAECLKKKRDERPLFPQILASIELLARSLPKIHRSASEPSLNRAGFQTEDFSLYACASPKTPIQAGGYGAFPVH

`Cc1ccc(NC(=O)C[C@H]2CCC[C@@H](C(F)(F)F)C2)cc1Nc1ncccc1-c1ncnc2[nH]cnc12` (single isomer, unassigned) [IA-137]: the GI50 was less than 20 nM. The value for `Cc1ccc(NC(=O)C[C@@H]2CCC[C@H](C(F)(F)F)C2)cc1Nc1ncccc1-c1ncnc2[nH]cnc12` (single isomer, unassigned) [IA-138] was less than 20 nM; that for `Cc1ccc(NC(=O)C[C@H]2CCC[C@H](C(F)(F)F)C2)cc1Nc1ncccc1-c1ncnc2[nH]cnc12` (single isomer, unassigned) [IA-139] was less than 20 nM; that for `Cc1ccc(NC(=O)C[C@@H]2CCC[C@@H](C(F)(F)F)C2)cc1Nc1ncccc1-c1ncnc2[nH]cnc12` (single isomer, unassigned) [IA-140] was less than 20 nM. The value for `Cc1ccc(NC(=O)C[C@H]2CCN[C@@H](C(F)(F)F)C2)cc1Nc1ncccc1-c1ncnc2[nH]cnc12` (single isomer, unassigned) [IA-141] was 100 to 500 nM. The value for `Cc1ccc(NC(=O)C[C@@H]2CCN[C@H](C(F)(F)F)C2)cc1Nc1ncccc1-c1ncnc2[nH]cnc12` (single isomer, unassigned) [IA-142] was 100 to 500 nM; that for `Cc1ccc(NC(=O)C[C@H]2CCN[C@H](C(F)(F)F)C2)cc1Nc1ncccc1-c1ncnc2[nH]cnc12` (single isomer, unassigned) [IA-143] was 100 to 500 nM. `Cc1ccc(NC(=O)C[C@@H]2CCN[C@@H](C(F)(F)F)C2)cc1Nc1ncccc1-c1ncnc2[nH]cnc12` (single isomer, unassigned) [IA-144] came in with a GI50 of 100 to 500 nM. Compound `Cc1ccc(NC(=O)C[C@H]2CCO[C@@H](C(F)(F)F)C2)cc1Nc1ncccc1-c1ncnc2[nH]cnc12` (single isomer, unassigned) [IA-146] registered a GI50 of 20 to 100 nM. Compound `Cc1ccc(NC(=O)C[C@H]2CCO[C@H](C(F)(F)F)C2)cc1Nc1ncccc1-c1ncnc2[nH]cnc12` (single isomer, unassigned) [IA-147] showed a concentration for 50% growth inhibition (GI50) of 20 to 100 nM. As to `Cc1ccc(NC(=O)C[C@@H]2CCO[C@@H](C(F)(F)F)C2)cc1Nc1ncccc1-c1ncnc2[nH]cnc12` (single isomer, unassigned) [IA-148], the GI50 was 20 to 100 nM. The value for `Cc1ccc(NC(=O)C[C@@H]2CCO[C@H](C(F)(F)F)C2)cc1Nc1ncccc1-c1ncnc2[nH]cnc12` (single isomer, unassigned) [IA-149] was 20 to 100 nM; that for `Cc1ccc(NC(=O)c2cc(C(F)(F)F)ccn2)cc1Nc1ncccc1-c1ncnc2[nH]cnc12` [Compound I-2, N-(3-(3-(9H-Purin-6-yl)pyridin-2-ylamino)-4-methylphenyl)-4-(trifluoromethyl)picolinamide] was less than 20 nM.

`Cc1ccc(NC(=O)CC2CCC(F)(F)CC2)cc1Nc1ncccc1-c1ncnc2[nH]cnc12` [Compound I-14, N-(3-(3-(9H-purin-6-yl)pyridin-2-ylamino)-4-methylphenyl)-2-(4,4-difluorocyclohexyl)acetamide]: the GI50 was less than 20 nM. The value for `Cc1ncc(NC(=O)c2cc(C(F)(F)F)ccn2)cc1Nc1ncccc1-c1ncnc2[nH]cnc12` [Compound I-16, N-(5-(3-(9H-purin-6-yl)pyridin-2-ylamino)-6-methylpyridin-3-yl)-4-(trifluoromethyl)picolinamide] was less than 20 nM. With `Cc1ncc(NC(=O)c2ccnc(C(F)(F)F)c2)cc1Nc1ncccc1-c1ncnc2[nH]cnc12` [Compound I-17, N-(5-(3-(9H-purin-6-yl)pyridin-2-ylamino)-6-methylpyridin-3-yl)-2-(trifluoromethyl)isonicotinamide] the figure was 20 to 100 nM; with `Cc1ncc(NC(=O)c2cncc(C(F)(F)F)c2)cc1Nc1ncccc1-c1ncnc2[nH]cnc12` [Compound I-18, N-(5-(3-(9H-purin-6-yl)pyridin-2-ylamino)-6-methylpyridin-3-yl)-5-(trifluoromethyl)nicotinamide], 20 to 100 nM.

What is called GI50 is the concentration at which growth is held to half of that of the control. Read a low GI50 as more potent growth inhibition.
